According to US6312703A, “Compressed lecithin preparations” (Lecigel, LLC, priority 1999, dated 2001):

Tests used:
LDL cholesterol = conditions: 60 hypercholesterolemic patients; Gurevich et al.; cited from earlier work
serum cholesterol = assay: Cholesterol lowering in hamsters fed LCP, Lescol or the combination, bled after two weeks; assay type: in vivo, Golden Syrian hamsters; conditions: diet with 2% LCP and/or 0.01% Lescol
Experimental: A study was performed to compare the effects of cholesterol reduction using the 2% LCP alone, 0.01% Lescol (a HMG CoA reductase inhibitor) alone, and a combination of 0.01% Lescol mixed with the phospholipids and extruded to create the LCP. The dosage was administered to Golden Syrian hamsters which were bled after two weeks to determine the cholesterol lowering effects.

Structure (SMILES)	Lovastatin dose required to reduce LDL cholesterol level to a value of 130 (LDL cholesterol)	HDL (serum cholesterol)	Non HDL (serum cholesterol)	Total Cholesterol (serum cholesterol)
CC[C@H](C)C(=O)O[C@H]1C[C@@H](C)C=C2C=C[C@H](C)[C@H](CC[C@@H]3C[C@@H](O)CC(=O)O3)[C@H]21 [Lovastatin]	40 mg/day			
CC(C)n1c(/C=C/[C@@H](O)C[C@@H](O)CC(=O)O)c(-c2ccc(F)cc2)c2ccccc21 (racemic) [Lescol]		1.77 ± 0.16	1.61 ± 0.63	3.37 ± 0.67
